The source of these data is patent publication EP0345629A2, “Condensed diazepinones, process for their preparation and medicaments containing them” (Dr. Karl Thomae GmbH, priority 1988, dated 1989).

Like-named read-outs stand apart in the source and are kept apart here.

The test system of data set [1] is Acetylcholinwirkung auf Bronchien. Description: Inhibition of the acetylcholine effect on bronchi (expiratory resistance, Konzett-Rößler) in the anaesthetised guinea pig. The class given is in vivo, Meerschweinchen. The note with it: for ED50: Cavia porcellus, 5 min, anaesthetised guinea pig, 10 µg/kg Acetylcholin 5 min after test substance, expiratory resistance, read-out: -log ED50 Bronchien (converted). Here is the method:
(§1) 3. Hemmung der Acetylcholinwirkung auf Blase, Bronchien und Herzfrequenz des Meerschweinchens
(§2) Am narkotisierten Meerschweinchen wurden 5 Minuten nach Gabe der Prüfsubstanz 10 µg/kg Acetylcholin sowohl intravenös als auch gleichzeitig intraarteriell injiziert. Dabei wurde die Herzfrequenz durch extrakorporale Ableitung des EKG, der Ausatemwiderstand nach Konzett-Rößler und die Kontraktion der freigelegten Harnblase direkt registriert. Für die Hemmung der Acetylcholinwirkung an den untersuchten Organen wurden Dosis-Wirkungskurven aufgenommen und daraus -log EDso-Werte bestimmt. Ergebnisse siehe Tabelle III.

The test system of data set [2] is Acetylcholinwirkung auf Blase. Description: Inhibition of the acetylcholine effect on bladder contraction in the anaesthetised guinea pig. The note with it: for ED50: Cavia porcellus, 5 min, anaesthetised guinea pig, 10 µg/kg Acetylcholin 5 min after test substance, bladder contraction, read-out: -log ED50 Blase (converted). The format is in vivo, Meerschweinchen. The protocol: as §1, §2

A further data set concerns vagale Bradykardie (M2). Description: M1/M2 selectivity in the rat: inhibition of bradycardia evoked by electrical vagus stimulation. The format is in vivo, männliche THOM-Ratten. The note with it: iv; for ED50: 5 min. The text has this: (§3) 1. M1-/M2-Selektivität an der Ratte
(§4) Die Dosis der Substanzen, die entweder die vagale Bradykardie (M2) oder den Blutdruckanstieg (M,) um 50% verminderte, wurde graphisch ermittelt. Ergebnisse siehe Tabelle 11.

In data set [3] the test system is Acetylcholinwirkung auf Herzfrequenz. Description: Inhibition of the acetylcholine effect on heart rate in the anaesthetised guinea pig. The format is in vivo, Meerschweinchen. The note with it: for ED50: Cavia porcellus, 5 min, anaesthetised guinea pig, 10 µg/kg Acetylcholin 5 min after test substance, heart rate (ECG). The protocol:
as §1, §2

The test system of data set [4] is durch McN-A-343 verursachte Blutdruckanstieg (M,). Description: M1/M2 selectivity in the rat: inhibition of blood pressure rise caused by McN-A-343. The class given is in vivo, männliche THOM-Ratten. To be noted: for ED50: iv, 5 min, rat, i.v., 5 min after injection, dose reducing the blood pressure rise after 0,3 mg/kg McN-A-343 i.v. (M1) by 50 %, read-out: -log ED50 Blutdruck (converted).
Description: as §3, §4

A short description of data set [5]: Solubility in water (remark in the synthesis example). The class given is physicochemical.
Another data set concerns Speichelsekretion. Description: Inhibition of pilocarpine-induced salivary secretion in the rat. To be noted: iv; urethane-anaesthetised rat, i.v.; 2 mg/kg Pilocarpin s.c.; dose reducing saliva volume by 50 %; read-out: -log ED50 Salivationshemmung (converted). The format is in vivo, männliche THOM-Ratten. The protocol: 2. Speichelsekretionshemmende Wirkung an der Ratte
Nach Lavy und Mulder (Arch. int. Pharmacodyn. 178, 437-445, (1969)) erhielten mit 1,2 g/kg Urethan narkotisierte männliche THOM-Ratten steigende Dosen der Substanz i.v.. Die Speichelsekretion wurde durch s.c. Gabe von 2 mg/kg Pilocarpin ausgelöst. Der Speichel wurde mit Fließpapier aufgesaugt, die von ihm eingenommene Fläche alle 5 Minuten planimetrisch bestimmt. Die Dosis der Substanz, die das Speichelvolumen um 50% verminderte, wurde graphisch ermittelt. Ergebnisse siehe Tabelle 11.

Where [6] appears, read: rat, i.v., 5 min after injection, dose reducing vagal bradycardia (M2) by 50 %, read-out: -log ED50 Herz (converted).

The ED50 is the dose that gives a 50% effect, or the effect in half of the subjects.

Take `CN1C2CCC1CC(OC(=O)C(CO)c1ccccc1)C2` (racemic) [F, Atropin, reference compound]: the “-log ED50 Bronchien” value in data set [1] (in vivo) was 7,96 Molkg^-1. Moreover, in data set [2] (in vivo), the “-log ED50 Blase” value is on record as 7,03 Molkg^-1. The “-log ED50 Herz” value is 7,94 Mkg^-1 with vagale Bradykardie (M2) (in vivo) and 7,70 Molkg^-1 in data set [3] (in vivo). For the same compound, the “-log ED50 Blutdruck” value in data set [4] (in vivo) was 7,34 Mkg^-1.
For `CCN(CC)CC1COCCN1CCCC(=O)N1c2ccccc2C(=O)Nc2cccnc21` (stereo not drawn) [A, 11-[4-[3-[(Diethylamino)methyl]-4-morpholinyl]-1-oxobutyl]-5,11-dihydro-6H-pyrido[2,3-b][1,4]-benzodiazepin-6-on], the ED50 in data set [1] is 0.0708 µmol/kg; in data set [2] it was 1 µmol/kg; with vagale Bradykardie (M2) (setting [6]), 0.0513 µmol/kg; in data set [3], 0.0282 µmol/kg; in data set [4], 0.55 µmol/kg; in the data set with Speichelsekretion it was 1.1 µmol/kg. Also, in data set [5], the “Löslichkeit in Wasser” value is “leicht löslich in Wasser”.
As to `CCN(CC)CC1CCCCN1CCCC(=O)N1c2cc(C)ccc2C(=O)Nc2cccnc21` (stereo not drawn) [B, 11-[4-[2-[(Diethylamino)methyl]-1-piperidinyl]-1-oxobutyl]-5,11-dihydro-9-methyl-6H-pyrido[2,3-b][1,4]benzodiazepin-6-on], the ED50 is 0.151 µmol/kg in data set [1]; 0.759 µmol/kg in data set [2]; 0.0617 µmol/kg in the data set on vagale Bradykardie (M2) (setting [6]); 0.0708 µmol/kg in data set [3]; 0.501 µmol/kg in data set [4]; 1.12 µmol/kg with Speichelsekretion.
Regarding `CN(C)CCC1CCCCN1CCCC(=O)N1c2ccccc2C(=O)Nc2cccnc21` (stereo not drawn) [Beispiel 4, 5,11-Dihydro-11-[4-[2-[2-(dimethylamino)ethyl]-1-piperidinyl]-1-oxobutyl]-6H-pyrido[2,3-b][1,4]benzodiazepin-6-on], the “Löslichkeit in Wasser” value in data set [5] is recorded as “löslich in Wasser”.
The same measure, in the same setting: the result for `CCN(CC)CC1CCCCN1CCCC(=O)N1c2ccc(Br)cc2C(=O)Nc2cccnc21` (stereo not drawn) [Beispiel 7, 8-Brom-11-[4-[2-[(diethylamirio)methyl]-1-piperidinyl]-1-oxobutyl]-5,11-dihydro-6H-pyrido[2,3-b][1,4]-benzodiazepin-6-on] reads “in Wasser schwer lösliches”.
On to `O=C1Nc2cccnc2N(C(=O)CCCN2CCCCC2CN2CCCC2)c2ccccc21` (stereo not drawn) [C, 5, 11-Dihydro-11-[4-[2-[(1-pyrrolidinyl)methyl]-1-piperidinyl]-1-oxobutyl]-6H-pyrido[2,3-b][1,4]-benzodiazepin-6-on], for which the ED50 in data set [1] was 0.0513 µmol/kg; in data set [2], 0.316 µmol/kg; with vagale Bradykardie (M2) (setting [6]) it was 0.0468 µmol/kg; in data set [3], 0.0275 µmol/kg; in data set [4], 0.219 µmol/kg; with Speichelsekretion, 1.66 µmol/kg.
On to `CCN(CC)CC1CCCCN1CC(=O)N1c2ccccc2C(=O)Nc2cccnc21` (stereo not drawn) [D, 11-[[2-[(Diethylamino)methyl]-1-piperidinyl]acetyl]-5,11-dihydro-6H-pyrido[2,3-b][1,4]-benzodiazepin-6-on, reference compound], for which the ED50 in the data set on vagale Bradykardie (M2) (Rattus norvegicus, read-out: -log ED50 Herz) was 0.38 µmol/kg; in data set [4], 2.34 µmol/kg; in the data set on Speichelsekretion it was 10 µmol/kg.
As for `CN1CCN(CC(=O)N2c3ccccc3C(=O)Nc3cccnc32)CC1` [E, 5,11-Dihydro-11-[(4-methyl-1-piperazinyl)acetyl]-6H-pyrido[2,3-b][1,4]benzodiazepin-6-on, reference compound], in the data set with Speichelsekretion, the ED50 is 0.603 µmol/kg.
